Each molecule was assayed against T1, human TrkA (Homo sapiens, UniProt P04629) (assay: Test Example 2: Human TrkA Inhibition Assay). Conditions: Test Example 2; human TrkA 2.5 nmol/L, ATP 500 μmol/L, 90 min at room temperature; read-out: TrkA inhibitory activity IC50.
T1 construct: purchased Lifetechnologies PV3144
T1 sequence (P04629 33-796): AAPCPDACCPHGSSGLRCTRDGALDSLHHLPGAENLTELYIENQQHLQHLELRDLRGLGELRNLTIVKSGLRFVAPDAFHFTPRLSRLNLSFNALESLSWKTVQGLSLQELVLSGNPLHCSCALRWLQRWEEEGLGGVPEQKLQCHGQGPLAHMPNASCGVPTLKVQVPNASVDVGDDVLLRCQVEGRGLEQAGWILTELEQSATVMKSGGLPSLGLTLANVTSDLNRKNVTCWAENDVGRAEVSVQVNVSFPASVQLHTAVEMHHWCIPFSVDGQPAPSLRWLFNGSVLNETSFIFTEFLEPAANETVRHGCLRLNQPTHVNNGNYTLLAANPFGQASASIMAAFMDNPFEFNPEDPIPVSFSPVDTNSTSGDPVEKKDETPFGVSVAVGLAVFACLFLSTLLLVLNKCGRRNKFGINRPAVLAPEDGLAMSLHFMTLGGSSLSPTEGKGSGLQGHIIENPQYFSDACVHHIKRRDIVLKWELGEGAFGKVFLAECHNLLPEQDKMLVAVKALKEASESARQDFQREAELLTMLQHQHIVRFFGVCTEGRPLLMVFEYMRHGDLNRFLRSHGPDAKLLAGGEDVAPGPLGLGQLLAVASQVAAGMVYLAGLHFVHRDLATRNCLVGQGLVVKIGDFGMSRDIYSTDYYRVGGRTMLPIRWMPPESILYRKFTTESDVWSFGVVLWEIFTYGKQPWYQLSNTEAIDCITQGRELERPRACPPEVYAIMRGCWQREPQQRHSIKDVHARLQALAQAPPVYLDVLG
Type: biochemical
Procedure: After the incubation for 90 min at room temperature, ten μL of termination buffer (100 mmol/L HEPES, 40 mmol/L ethylenediaminetetraacetic acid (EDTA), 10 mmol/L magnesium chloride, 0.003 vol % Brij-35, 0.004 vol % Tween20, 1 mmol/L DTT and 0.16 vol % Coating Reagent 3) was added in each well to stop the enzyme reaction. Fluorescent intensities (FI) of phosphorylated and non-phosphorylated fluorescent substrates were measured by LabChip EZReader II (Caliper LifeSciences, Inc.) and conversion ratio (CR) was calculated by the following formula-1. The CR in the well applied with DMSO alone was used as a negative control and the CR in the well without applying TrkA was used as a positive control. The inhibitory effect of each compound on TrkA phosphorylation was calculated by the following formula-2. CR (%)=(FI of phosphorylated substrate/(FI of phosphorylated substrate+FI of non-phosphorylated substrate))×100 (Formula-1) Inhibitory effect on TrkA phosphorylation (%)=(1−(CR in compound treated well−CR in positive control)/(CR in negative control−CR in positive control))×100. (Formula-2)
With `COCC(CSC)N1C[C@@H](NC(=O)Nc2c(C)c(-c3cnn(C)c3)nn2-c2ccccc2)[C@H](c2ccc(F)c(F)c2)C1` (stereo partly drawn) [Compound I-130] the IC50 was 460 nM. `COCC(Cn1cccn1)N1C[C@@H](NC(=O)Nc2c(C)c(-c3cnn(C)c3)nn2-c2ccccc2)[C@H](c2ccc(F)c(F)c2)C1` (stereo partly drawn) [Compound I-100] gave an IC50 of 34 nM. Molecule `COCC(CN1CC(F)(F)C1)N1C[C@@H](NC(=O)Nc2c(C)c(-c3cnn(C)c3)nn2-c2ccccc2)[C@H](c2ccc(F)c(F)c2)C1` (stereo partly drawn) [Compound I-106] has an IC50 of 79 nM. Molecule `Cc1c(-c2cnn(C)c2)nn(-c2ccccc2)c1NC(=O)N[C@@H]1CC2(CC(=O)C2)C[C@H]1c1ccccc1` (racemic) [Compound I-157] has an IC50 of 3300 nM. With `Cc1c(-c2cnn(C)c2)nn(-c2ccccc2)c1NC(=O)N[C@@H]1CC(=O)C[C@H]1c1ccccc1` (racemic) [Compound I-161] the IC50 was 4200 nM. Molecule `COCCN1C[C@@H](CC(=O)Nc2c(C)c(-c3cnn(C)c3)nn2-c2ccccc2)[C@H](c2ccc(F)c(F)c2)C1` (racemic) [Compound I-15] has an IC50 of 143 nM.

Same assay, conditions: human TrkA inhibition, Test Example 2; class symbols A/B/C; read-out: IC50_nM
For `Cc1c(-c2cnn(C)c2)nn(-c2ccccc2)c1NC(=O)N[C@@H]1CN(Cc2ccc(C#N)o2)C[C@H]1c1ccc(F)c(F)c1` [Compound I-89], the IC50 was < 100 nM. In the case of `COCCN1C[C@@H](NC(=O)Nc2c(C)c(-c3cnn(C)c3)nn2-c2ccccc2)[C@H](C2CCCCC2)C1` (racemic) [Compound I-9], the IC50 is reported as 100 to 1000 nM. For `COCCN1C[C@@H](NC(=O)Nc2c(C)c(-c3cnn(C)c3)nn2-c2ccccc2)[C@H](c2ccc3c(c2)OCCO3)C1` (racemic) [Compound I-128], the IC50 was 100 to 1000 nM. With `COCCN1C[C@@H](NC(=O)Nc2c(C)c(-c3cnn(C)c3)nn2-c2ccccc2)[C@H](c2cccc(C(=O)OC)c2)C1` (racemic) [Compound I-19] the IC50 was > 1000 nM. In the case of `COCCN1C[C@@H](NC(=O)C(O)c2c(C)c(-c3cnn(C)c3)nn2-c2ccccc2)[C@H](c2ccc(F)c(F)c2)C1` (stereo partly drawn) [Compound I-79], the IC50 is reported as 100 to 1000 nM. In the case of `Cc1c(-c2cnn(C)c2)nn(-c2ccccc2)c1NC(=O)N[C@@H]1CN(C(=O)OC(C)(C)C)C[C@H]1c1ccccc1` (racemic) [Compound I-5], the IC50 is reported as > 1000 nM. In the case of `Cc1c(-c2cnn(C)c2)nn(-c2ccccc2)c1NC(=O)N[C@@H]1CN(C#N)C[C@H]1c1ccc(F)c(F)c1` [Compound I-173], the IC50 is reported as > 1000 nM. In the case of `Cc1c(-c2cnn(C)c2)nn(-c2ccccc2)c1NC(=O)N[C@@H]1CN(C2CC(F)(F)C2)C[C@H]1c1ccc(F)c(F)c1` [Compound I-38], the IC50 is reported as > 1000 nM. For `CCC1C[C@@H](NC(=O)Nc2c(C)c(-c3cnn(C)c3)nn2-c2ccccc2)[C@H](c2ccccc2)C1` (stereo partly drawn) [Compound I-103], the IC50 was < 100 nM. With `Cc1c(-c2cnn(C)c2)nn(-c2ccccc2)c1NC(=O)N[C@@H]1CC(C)(O)C[C@H]1c1ccccc1` (stereo partly drawn) [Compound I-154] the IC50 was > 1000 nM. For `COCCN1C[C@@H](NC(=O)Nc2c(C)c(-c3cnn(C)c3)nn2-c2ccccc2)[C@H](c2cccc(-c3ccc(C#N)cc3)c2)C1` (racemic) [Compound I-50], the IC50 was < 100 nM. With `Cc1c(-c2cnn(C)c2)nn(-c2ccccc2)c1NC(=O)N[C@@H]1CN(C=O)C[C@H]1c1ccc(F)c(F)c1` [Compound I-35] the IC50 was > 1000 nM. For `Cc1c(-c2cnn(C)c2)nn(-c2ccccc2)c1NC(=O)N[C@@H]1CN(CCc2ccccc2)C[C@H]1c1ccc(F)c(F)c1` [Compound I-62], the IC50 was > 1000 nM. Molecule `COCOC1C[C@@H](NC(=O)Nc2c(C)c(-c3cnn(C)c3)nn2-c2ccccc2)[C@H](c2ccccc2)C1` (relative stereo) [Compound I-121] has an IC50 of 100 to 1000 nM. In the case of `COCCC1C[C@@H](NC(=O)Nc2c(C)c(-c3cnn(C)c3)nn2-c2ccccc2)[C@H](c2ccccc2)C1` (stereo partly drawn) [Compound I-85], the IC50 is reported as < 100 nM. With `COCC(CNC(=N)N)N1C[C@@H](NC(=O)Nc2c(C)c(-c3cnn(C)c3)nn2-c2ccccc2)[C@H](c2ccc(F)c(F)c2)C1` (stereo partly drawn) [Compound I-145] the IC50 was > 1000 nM. `COCC(CC(=O)OC)N1C[C@@H](NC(=O)Nc2c(C)c(-c3cnn(C)c3)nn2-c2ccccc2)[C@H](c2ccc(F)c(F)c2)C1` (stereo partly drawn) [Compound I-117] gave an IC50 of 100 to 1000 nM. For `COCC(CCl)N1C[C@@H](NC(=O)Nc2c(C)c(-c3cnn(C)c3)nn2-c2ccccc2)[C@H](c2ccc(F)c(F)c2)C1` (stereo partly drawn) [Compound I-99], the IC50 was < 100 nM. In the case of `C=C1C[C@@H](NC(=O)Nc2c(C)c(-c3cnn(C)c3)nn2-c2ccccc2)[C@H](c2ccc(F)cc2)C1` (racemic) [Compound I-65], the IC50 is reported as < 100 nM. With `COCC(C(=O)N(C)OC)N1C[C@@H](NC(=O)Nc2c(C)c(-c3cnn(C)c3)nn2-c2ccccc2)[C@H](c2ccc(F)c(F)c2)C1` (stereo partly drawn) [Compound I-169] the IC50 was > 1000 nM. For `CNCC(COC)N1C[C@@H](NC(=O)Nc2c(C)c(-c3cnn(C)c3)nn2-c2ccccc2)[C@H](c2ccc(F)c(F)c2)C1` (stereo partly drawn) [Compound I-138], the IC50 was 100 to 1000 nM. In the case of `COCCN1C[C@@H](NC(=O)Nc2c(C)c(-c3cnn(C)c3)nn2-c2ccccc2)[C@H](c2ccc(C(=O)O)cc2)C1` (racemic) [Compound I-83], the IC50 is reported as > 1000 nM. `Cc1c(-c2cnn(C)c2)nn(-c2ccccc2)c1NC(=O)N[C@@H]1CN(C2COC2)C[C@H]1c1ccc(F)c(F)c1` [Compound I-37] showed an IC50 of 100 to 1000 nM. In the case of `COCCN1C[C@@H](NC(=O)Nc2c(C)c(-c3cnn(C)c3)nn2-c2ccccc2)[C@H](c2ccc3nccn3c2)C1` (racemic) [Compound I-165], the IC50 is reported as > 1000 nM. For `COCCN1C[C@@H](NC(=O)Nc2c(C)c(-c3cnn(C)c3)nn2-c2ccccc2)[C@H](c2cccc3c2OCO3)C1` (racemic) [Compound I-75], the IC50 was 100 to 1000 nM. For `Cc1c(-c2cnn(C)c2)nn(-c2ccccc2)c1NC(=O)N[C@@H]1CN(CCCc2ccccc2)C[C@H]1c1ccc(F)c(F)c1` [I 63], the IC50 was > 1000 nM. With `COCCN1C[C@@H](NC(=O)Nc2c(C)c(-c3cnn(C)c3)nn2-c2ccccc2)[C@H](c2ccc3c(c2)N(C(=O)OC(C)(C)C)CCO3)C1` (racemic) [Compound I-167] the IC50 was > 1000 nM. `CCOC(=O)CC1C[C@@H](NC(=O)Nc2c(C)c(-c3cnn(C)c3)nn2-c2ccccc2)[C@H](c2ccccc2)C1` (stereo partly drawn) [Compound I-124] showed an IC50 of 100 to 1000 nM. In the case of `COCCN1C[C@@H](NC(=O)Nc2c(C)c(-c3cnn(C)c3)nn2-c2ccccc2)[C@H](c2cccc(N(C)C)c2)C1` (racemic) [Compound I-171], the IC50 is reported as > 1000 nM. `Cc1c(-c2cnn(C)c2)nn(-c2ccccc2)c1NC(=O)N[C@@H]1CN(Cc2cscn2)C[C@H]1c1ccc(F)c(F)c1` [Compound I-90] was tested, and the IC50 was < 100 nM. With `COCOCCN1C[C@@H](NC(=O)Nc2c(C)c(-c3cnn(C)c3)nn2-c2ccccc2)[C@H](c2ccc(F)c(F)c2)C1` [Compound I-80] the IC50 was 100 to 1000 nM. For `Cc1c(-c2cnn(C)c2)nn(-c2ccccc2)c1NC(=O)N[C@@H]1CN(CC(F)(F)F)C(=O)[C@H]1c1ccc(F)c(F)c1` [Compound I-74], the IC50 was > 1000 nM. For `COCCN1[C@@H]2CCC[C@H]1[C@@H](c1ccc(F)c(F)c1)[C@@H]2NC(=O)Nc1c(C)c(-c2cnn(C)c2)nn1-c1ccccc1` (racemic) [Compound I-12], the IC50 was > 1000 nM. With `COCC(CNS(C)(=O)=O)N1C[C@@H](NC(=O)Nc2c(C)c(-c3cnn(C)c3)nn2-c2ccccc2)[C@H](c2ccc(F)c(F)c2)C1` (stereo partly drawn) [Compound I-140] the IC50 was 100 to 1000 nM. `COCC(CCO)N1C[C@@H](NC(=O)Nc2c(C)c(-c3cnn(C)c3)nn2-c2ccccc2)[C@H](c2ccc(F)c(F)c2)C1` (stereo partly drawn) [Compound I-105] was tested, and the IC50 was < 100 nM. For `Cc1c(-c2cnn(C)c2)nn(-c2ccccc2)c1NC(=O)N[C@@H]1CN(Cc2ccoc2)C[C@H]1c1ccc(F)c(F)c1` [Compound I-118], the IC50 was 100 to 1000 nM.
